Experimental data as given in patent US20240239790A1, “7-Morpholino-1,6-Naphthyridin-5-yl Derivatives and Pharmaceutical Compositions Thereof Useful as DNA-PK Inhibitor” (adMare Therapeutics Society, priority 2021, published 2024).
Like-named read-outs stand apart in the source and are kept apart here.

What was measured:
[1] = biological target: T1, DNA-PK phosphorylation at Serine 2056 (Homo sapiens, UniProt P78527); test: Cellular Assay for Inhibition of DNA-PK Phosphorylation at Serine 2056 in FaDu cells (sandwich ELISA, neocarzinostatin); format: cell-based; conditions: pSer2056 DNA-PK
T1 construct: FaDu cells were purchased from ATCC; host or cells: FaDu
Summary of the method: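 pSer2056 and total DNA-PK were measured by sandwich ELISA in BCA-normalised FaDu lysates. Cells had 1 h compound exposure (0.3% DMSO), then 2 h with 1 μg/mL final neocarzinostatin. IC50 was fitted (variable slope) to % inhibition scaled against NCS-stimulated and DMSO-only controls.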

[2] = Microsomal Stability Assay, mouse liver microsomes; format: in vitro ADME; conditions: for microsomal CLint at 0.1 uM: male, CD-1, pH 7.4, mouse liver microsomes 0.1 mg/mL, 0.1 uM compound; for Microsomal Stability Mouse % rem. 60 min: mouse liver microsomes
Experimental: Samples were then mixed and centrifuged. Supernatants were used for HPLC-MS/MS analysis. […] Peak areas corresponding to the test compound were recorded.

DNA-PK = biological target: T2, DNA-PK (Homo sapiens, UniProt P78527); test: DNA-PK Assay for Biochemical Enzymatic Inhibition (ADP Glo Kinase assay); conditions: DNA-PK enzyme
T2 construct: purchased Invitrogen PR9107A
Summary of the method: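 Human DNA-PK (25 ng) preincubated 15 min with compounds (ten three-fold dilutions) in HEPES pH 7.5, MgCl2, KCl, calf thymus DNA buffer, then substrate 434.4 μM and ATP 64.4 μM (final) for 60 min at room temperature. ADP-Glo luminescence; percent inhibition fitted by four-parameter regression for IC50.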

[3] = test system: pDNA-PK induction in HCT116 tumour spheroids; test: Multicellular tumour spheroid + radiation, pDNA-PK (ser2056) inhibition, immunohistochemical endpoint, HCT116; format: cell-based; conditions: Homo sapiens, 20 Gy, 20% O2
Summary of the method: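 HCT116 spheroids (~0.5 mm) in MEM/10% FBS, 20% O2, 37° C., pre-incubated 1 h with compound (10 or 5 μM down to 3.5 nM), irradiated 20 Gy, then 2 h further with compound. Cryosections immunostained for pDNA-PK ser2056; EC50 is concentration halving radiation-induced pDNA-PK.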

FaDu cell line = test: Prodrug Activation in Hypoxic Stirred Tumour Cell Suspensions; conditions: 10 μM, 4 hours
Experimental: Prodrug compounds were assayed to determine their stability and rate of activation in stirred cell suspensions under 0.2 vs 5% oxygen. Compounds were diluted 1:1000 from DMSO stocks to 10 μM final concentration in tumour cell suspensions (1% by cell volume) in MEM media containing 10% FBS, 10 mM glucose & 3.7 g/L sodium bicarbonate. Cell lines assayed included A253, A549, Detroit562, FaDu, HCT116, HEP G2, HT29, SCC25, SCC9, SiHa & TC32. Compounds and cells were then incubated for 4 hours under constant mixing at 37° C. under 5% CO2 and either 0.2 or 5% O2. Following the incubation period cellular activation of the compounds was assayed via MeOH extraction and HPLC quantification.

[4] = test system: pH2AX induction in HCT116 ATM-/- multicellular tumour spheroids; test: Prodrug Radiation Sensitization in Multicellular Tumour Spheroids, inhibition of pH2AX induction following radiation; format: cell-based; conditions: Homo sapiens, HCT-116, 20 Gy
Summary of the method: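 Endpoint: pH2AX (ser 139) or pDNA-PK (ser 2056) in cryosections fixed 1 or 2 h after 20 Gy, comparing oxygenated outer with hypoxic inner layers. Spheroids of ~0.5 mm (HCT116, FaDu; ATM-deficient cells used) held at 20% or 5% O2, 37 °C, stirred. Prodrug range 3.5 nM–10 μM.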

[5] = neocarzinostatin 1 μg/mL, Table 1
[6] = HCT-116, 2 h, spheroids, Example 8, read-out: Cell line: HCT116 Immunohistochemical endpoint pDNA-PK inhibition EC50
[7] = HCT-116, 2 hours following radiation, Example 9 Study 2, read-out: Spheroid Cell line: HCT116 Immunohistochemical endpoint pDNA-PK inhibition EC50
[8] = HCT-116, Spheroid, Cell Line: HCT115 (so in the source), 2 hours following radiation, Example 7, read-out: EC50, Immunohistochemical endpoint, pDNA-PK inhibition
[9] = 5% O2, inner layers, read-out: Prodrug 5% O2 Inner layers EC50
[10] = 5% O2, outer layers, read-out: Prodrug 5% O2 Outer layers EC50
[11] = 20% O2, outer layers, read-out: Prodrug 20% O2 Outer layers EC50

| IC50 [1, 5] [nM] | microsomal CLint at 0.1 uM [2] [µL/min/mg] | Microsomal Stability Mouse % rem. 60 min [2] | IC50 (DNA-PK; Table 1) [nM] | EC50 [3, 6] [nM] | EC50 [3, 7] [nM] | EC50 [3, 8] [nM] | Fraction of prodrug converted to active form, Hypoxic 0.2% O2 (FaDu cell line) | Fraction of prodrug converted to active form, Oxic 5% O2 (FaDu cell line) | IC50 ([1]; Table 2) [nM] | IC50 (DNA-PK; Table 2) [nM] | SMILES | EC50 [4, 9] [nM] | EC50 [4, 10] [nM] | EC50 [4, 11] [nM] |
| --- | --- | --- | --- | --- | --- | --- | --- | --- | --- | --- | --- | --- | --- | --- |
| 10000 to 30000 | > 116 | E (% remaining = 0-25%) | 1 to 10 | 1000 to 10000 | 1000 to 10000 | 1000 to 10000 | – | – | – | – | Cn1cc([C@H]2CC[C@@H](Oc3nc(N4CCOCC4)cc4ncc(OCCO)cc34)CC2)cn1 [Compound 5, 2-((5-(((1s,4s)-4-(1-methyl-1H-pyrazol-4-yl)cyclohexyl)oxy)-7-morpholino-1,6-naphthyridin-3-yl)oxy)ethan-1-ol] | – | – | – |
| – | > 116 | E (% remaining = 0-25%) | 10 to 150 | – | – | – | – | – | – | – | CC1(C)CN(c2cc3ncccc3c(O[C@H]3CC[C@@H](n4ccnc4)CC3)n2)CC(C)(C)O1 [Compound 12, 4-(5-(((1s,4s)-4-(1H-imidazol-1-yl)cyclohexyl)oxy)-1,6-naphthyridin-7-yl)-2,2,6,6-tetramethylmorpholine] | – | – | – |
| 100 to 1000 | > 116 | E (% remaining = 0-25%) | 1 to 10 | 1000 to 10000 | 1000 to 10000 | 1000 to 10000 | – | – | – | – | NC(=O)N[C@H]1CC[C@@H](Oc2nc(N3CCOCC3)cc3ncccc23)CC1 [Compound 15, 1-((1s,4s)-4-((7-morpholino-1,6-naphthyridin-5-yl)oxy)cyclohexyl)urea] | – | – | – |
| 100 to 1000 | > 116 | E (% remaining = 0-25%) | < 0.5 | – | 500 to 1000 | 500 to 1000 | – | – | – | – | CON(C)C(=O)COc1cnc(N[C@H]2CC[C@@H](Oc3nc(N4CCOCC4)cc4ncccc34)CC2)nc1 [Compound 58, N-Methoxy-N-methyl-2-((2-(((1s,4s)-4-((7-morpholino-1,6-naphthyridin-5-yl)oxy)cyclohexyl)amino)pyrimidin-5-yl)oxy)acetamide] | – | – | – |
| < 100 | > 116 | F (% remaining = 25-50%) | < 0.5 | – | 10 to 500 | 10 to 500 | – | – | – | – | NC(=O)COc1cnc(N[C@H]2CC[C@@H](Oc3nc(N4CCOCC4)cc4ncccc34)CC2)nc1 [Compound 60, 2-((2-(((1s,4s)-4-((7-Morpholino-1,6-naphthyridin-5-yl)oxy)cyclohexyl)amino)pyrimidin-5-yl)oxy)acetamide] | – | – | – |
| < 100 | > 116 | E (% remaining = 0-25%) | 1 to 10 | – | 500 to 1000 | 500 to 1000 | – | – | – | – | CONC(=O)COc1cnc(N[C@H]2CC[C@@H](Oc3nc(N4CCOCC4)cc4ncccc34)CC2)nc1 [Compound 72, N-Methoxy-2-((2-(((1s,4s)-4-((7-morpholino-1,6-naphthyridin-5-yl)oxy)cyclohexyl)amino)pyrimidin-5-yl)oxy)acetamide] | – | – | – |
| 1000 to 10000 | > 116 | F (% remaining = 25-50%) | 1 to 10 | – | 1000 to 10000 | 1000 to 10000 | – | – | – | – | CN(C)C(=O)Cn1cccc1C(=O)N[C@H]1CC[C@@H](Oc2nc(N3CCOCC3)cc3ncccc23)CC1 [Compound 146, 1-(2-(dimethylamino)-2-oxoethyl)-N-((1s,4s)-4-((7-morpholino-1,6-naphthyridin-5-yl)oxy)cyclohexyl)-1H-pyrrole-2-carboxamide] | – | – | – |
| 100 to 1000 | > 116 | E (% remaining = 0-25%) | 0.5 to 1 | 500 to 1000 | 500 to 1000 | 500 to 1000 | – | – | – | – | O=C(Nc1ccccc1)N[C@H]1CC[C@@H](Oc2nc(N3CCOCC3)cc3ncccc23)CC1 [Compound 150, 1-((1s,4s)-4-((7-Morpholino-1,6-naphthyridin-5-yl)oxy)cyclohexyl)-3-phenylurea] | – | – | – |
| – | > 116 | E (% remaining = 0-25%) | 10 to 150 | – | – | – | – | – | – | – | c1ccc(-c2cnc3cc(N4CCOCC4)nc(O[C@H]4CC[C@@H](n5ccnc5)CC4)c3c2)cc1 [Compound 156, 4-(5-(((1s,4s)-4-(1H-imidazol-1-yl)cyclohexyl)oxy)-3-phenyl-1,6-naphthyridin-7-yl)morpholine] | – | – | – |
| 1000 to 10000 | > 116 | E (% remaining = 0-25%) | 1 to 10 | – | – | – | – | – | – | – | Cc1noc(C)c1-c1cnc2cc(N3CCOCC3)nc(O[C@H]3CC[C@@H](n4ccnc4)CC3)c2c1 [Compound 157, 4-(5-(((1s,4s)-4-(1H-imidazol-1-yl)cyclohexyl)oxy)-3-(3,5-dimethylisoxazol-4-yl)-1,6-naphthyridin-7-yl)morpholine] | – | – | – |
| 100 to 1000 | > 116 | E (% remaining = 0-25%) | 10 to 150 | – | – | – | – | – | – | – | Cn1cc(-c2cnc3cc(N4CCOCC4)nc(O[C@H]4CC[C@@H](n5ccnc5)CC4)c3c2)cn1 [Compound 158, 4-(5-(((1s,4s)-4-(1H-imidazol-1-yl)cyclohexyl)oxy)-3-(1-methyl-1H-pyrazol-4-yl)-1,6-naphthyridin-7-yl)morpholine] | – | – | – |
| 10000 to 30000 | > 116 | E (% remaining = 0-25%) | 1 to 10 | 10000 to 100000 | 10000 to 100000 | 10000 to 100000 | – | – | – | – | NC(=O)c1cnc2cc(N3CCOCC3)nc(O[C@H]3CC[C@@H](n4ccnc4)CC3)c2c1 [Compound 166, 5-(((1s,4s)-4-(1H-imidazol-1-yl)cyclohexyl)oxy)-7-morpholino-1,6-naphthyridine-3-carboxamide] | – | – | – |
| 100 to 1000 | > 116 | E (% remaining = 0-25%) | 1 to 10 | 10000 to 100000 | 10000 to 100000 | 10000 to 100000 | – | – | – | – | CC(=O)NC(=O)c1cnc2cc(N3CCOCC3)nc(O[C@H]3CC[C@@H](n4ccnc4)CC3)c2c1 [Compound 167, 5-(((1s,4s)-4-(1H-imidazol-1-yl)cyclohexyl)oxy)-N-acetyl-7-morpholino-1,6-naphthyridine-3-carboxamide] | – | – | – |
| 1000 to 10000 | < 116 | G (% remaining = 50-75%) | 1 to 10 | 1000 to 10000 | 1000 to 10000 | 1000 to 10000 | – | – | – | – | CONC(=O)c1cnc2cc(N3CCOCC3)nc(O[C@H]3CC[C@@H](n4ccnc4)CC3)c2c1 [Compound 171, 5-(((1s,4s)-4-(1H-imidazol-1-yl)cyclohexyl)oxy)-N-methoxy-7-morpholino-1,6-naphthyridine-3-carboxamide] | – | – | – |
| – | – | – | – | – | – | – | A (A is 0.15 to 1) | C (C is 0.02 to 0.05) | 10000 to 30000 | 10 to 150 | Cn1c(COc2cnc3cc(N4CCOCC4)nc(O[C@H]4CC[C@@H](NC(=O)c5ncccn5)CC4)c3c2)cnc1[N+](=O)[O-] [LFA116, N-[4-[[3-[(3-Methyl-2-nitro-imidazol-4-yl)methoxy]-7-morpholino-1,6-naphthyridin-5-yl]oxy]cyclohexyl]pyrimidine-2-carboxamide] | 10 to 500 | 1000 to 10000 | 1000 to 10000 |
| – | – | – | – | – | – | – | A (A is 0.15 to 1) | C (C is 0.02 to 0.05) | 10000 to 30000 | 10 to 150 | Cn1c(COc2cnc3cc(N4CCOCC4)nc(O[C@H]4CC[C@@H](Nc5ncccn5)CC4)c3c2)cnc1[N+](=O)[O-] [LFA118, N-[4-[[3-[(3-Methyl-2-nitro-imidazol-4-yl)methoxy]-7-morpholino-1,6-naphthyridin-5-yl]oxy]cyclohexyl]pyrimidin-2-amine] | 10 to 500 | 500 to 1000 | 1000 to 10000 |
